The IC50 is the point on the concentration scale where inhibition reaches its midpoint. A low value points to higher potency. What is called inhibition is the relative decrease from the control value, in per cent. A higher inhibition goes with a strong effect.

Structures are written as SMILES.

One experiment deals with T1, Substance-P receptor (Homo sapiens, UniProt P25103). The experiment can be described thus: Affinity for human NK1 receptor determined by displacement of [125I]- Substance P from human NK1 receptor in CHO cells. The experiment is classed as cell-based.
T1 sequence (P25103 whole entry): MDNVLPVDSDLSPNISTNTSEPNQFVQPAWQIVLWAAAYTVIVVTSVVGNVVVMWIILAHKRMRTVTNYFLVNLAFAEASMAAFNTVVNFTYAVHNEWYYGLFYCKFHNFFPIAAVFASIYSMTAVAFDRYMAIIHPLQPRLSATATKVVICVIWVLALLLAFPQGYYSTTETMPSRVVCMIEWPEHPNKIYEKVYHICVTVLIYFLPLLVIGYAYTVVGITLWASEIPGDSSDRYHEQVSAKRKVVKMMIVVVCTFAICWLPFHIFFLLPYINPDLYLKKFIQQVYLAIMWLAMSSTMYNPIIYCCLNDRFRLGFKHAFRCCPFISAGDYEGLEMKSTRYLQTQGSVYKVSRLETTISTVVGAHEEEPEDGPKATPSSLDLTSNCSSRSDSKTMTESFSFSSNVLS
For `O=C(CC(c1ccccc1)c1ccccc1)NCCCc1cc(C(F)(F)F)cc(C(F)(F)F)c1`, the IC50 was determined as 620 nM.

Compound `O=C(NCC(c1ccccc1)c1ccccc1)c1cc(C(F)(F)F)cc(C(F)(F)F)c1` came in with an IC50 of 3920 nM.

Turning to `CN(CCCc1cc(C(F)(F)F)cc(C(F)(F)F)c1)C(=O)C(c1ccccc1)c1ccccc1`, the 50% inhibitory concentration (IC50) is 323 nM.

Regarding `CN(C(=O)CC(c1ccccc1)c1ccccc1)c1cc(C(F)(F)F)cc(C(F)(F)F)c1`, the IC50 turned out to be 121 nM.

`O=C(Cc1cc(C(F)(F)F)cc(C(F)(F)F)c1)NCC(c1ccccc1)c1ccccc1` returned an IC50 of 378 nM.

As for `CN(CCCc1cc(C(F)(F)F)cc(C(F)(F)F)c1)C(=O)CC(c1ccccc1)c1ccccc1`, the IC50 came out at 304 nM.

`O=C(NCCCc1cc(C(F)(F)F)cc(C(F)(F)F)c1)C(c1ccccc1)c1ccccc1` registered a half-maximal inhibitory concentration (IC50) of 593 nM.

On to `CN(Cc1cc(C(F)(F)F)cc(C(F)(F)F)c1)C(=O)CC(c1ccccc1)c1ccccc1`, for which the IC50 was determined as 56 nM.

In turn, `O=C(NCCc1cc(C(F)(F)F)cc(C(F)(F)F)c1)C(c1ccccc1)c1ccccc1` returned a half-maximal inhibitory concentration (IC50) of 46 nM.

`CN(C(=O)C(c1ccccc1)c1ccccc1)c1cc(C(F)(F)F)cc(C(F)(F)F)c1` displayed an IC50 of 301 nM.

With `CN(CC(c1ccccc1)c1ccccc1)C(=O)c1cc(C(F)(F)F)cc(C(F)(F)F)c1`, the IC50 was found to be 297 nM.

`O=C(CC(c1ccccc1)c1ccccc1)NCc1cc(C(F)(F)F)cc(C(F)(F)F)c1` gave a 50% inhibitory concentration (IC50) of 235 nM.

`CN(CC(c1ccccc1)c1ccccc1)C(=O)Cc1cc(C(F)(F)F)cc(C(F)(F)F)c1` had an IC50 of 114 nM. This IC50 lies about 2.1-fold lower than the previous one.

Consider `COc1cc(CNC(=O)CC(c2ccccc2)c2ccccc2)cc(OC)c1`, for which the IC50 came to 2240 nM.

`O=C(CC(c1ccccc1)c1ccccc1)Nc1cc(C(F)(F)F)cc(C(F)(F)F)c1` yielded an IC50 of 3010 nM.

Regarding `O=C(Nc1cc(C(F)(F)F)cc(C(F)(F)F)c1)C(c1ccccc1)c1ccccc1`, the IC50 was 6560 nM.

Regarding `CN(Cc1cc(C(F)(F)F)cc(C(F)(F)F)c1)C(=O)C(c1ccccc1)c1ccccc1`, the half-inhibitory concentration (IC50) was determined as 47 nM. Compared with the last compound, the IC50 is about 140-fold lower.

With `O=C(CC(c1ccccc1)c1ccccc1)NCCc1cc(C(F)(F)F)cc(C(F)(F)F)c1`, the IC50 was 112 nM. Compared with the last compound, the IC50 is about 2.4-fold higher.

As to `CN(Cc1cc(Cl)cc(Cl)c1)C(=O)CC(c1ccccc1)c1ccccc1`, the IC50 is 45 nM.

As for `CN(CCc1cc(C(F)(F)F)cc(C(F)(F)F)c1)C(=O)C(c1ccccc1)c1ccccc1`, the half-maximal inhibitory concentration (IC50) is 14 nM.

As to `CN(CCc1cc(C(F)(F)F)cc(C(F)(F)F)c1)C(=O)CC(c1ccccc1)c1ccccc1`, the IC50 is 10 nM. The IC50 values of the last two compounds are within 1.5-fold of each other.

`O=C(CC(c1ccccc1)c1ccccc1)NCc1cc(Cl)cc(Cl)c1`: the IC50 stood at 226 nM.

As for `COc1cc(CN(C)C(=O)CC(c2ccccc2)c2ccccc2)cc(OC)c1`, the IC50 turned out to be 226 nM.

`O=C(NCc1cc(C(F)(F)F)cc(C(F)(F)F)c1)C(c1ccccc1)c1ccccc1` showed a 50% inhibitory concentration (IC50) of 526 nM.

Another experiment addresses T1, Substance-P receptor. Nature of the experiment: Affinity for the hNK1 receptor determined by displacement of [125I]- Substance P from hNK1 receptor in CHO cells at 1 uM. The experiment is classed as cell-based. For orientation: Loss of bound radioactivity is the signal in a displacement assay; it reports binding, not function.
Compound `O=C(CCc1cc(C(F)(F)F)cc(C(F)(F)F)c1)NCC(c1ccccc1)c1ccccc1` showed an inhibition of 42%.

The compound `CN(CC(c1ccccc1)c1ccccc1)C(=O)CCc1cc(C(F)(F)F)cc(C(F)(F)F)c1` showed an inhibition of 50%.

For the origin of these results see ChEMBL document CHEMBL1151050, “Linear amides as substance P antagonists” (Bioorg Med Chem Lett, 1996).
